Experimental data as given in patent publication US4572913A, “Use of 3-(arylmethyleneamino)-1-aryl-2-pyrazolines in the prophylaxis and treatment of inflammation, pain, pyresis, and asthma” (Burroughs Wellcome Co., priority 1980, dated 1986).

Columns and labels:
[1] = target: cyclo-oxygenase; assay: inhibition of cyclo-oxygenase, enzyme assay according to the method of Blackwell and Flower; assay type: biochemical
[2] = target: lipoxygenase; assay: inhibition of lipoxygenase, enzyme assay according to the method of Blackwell and Flower; assay type: biochemical

Chain of cyclo-oxygenase (P23219 24-599): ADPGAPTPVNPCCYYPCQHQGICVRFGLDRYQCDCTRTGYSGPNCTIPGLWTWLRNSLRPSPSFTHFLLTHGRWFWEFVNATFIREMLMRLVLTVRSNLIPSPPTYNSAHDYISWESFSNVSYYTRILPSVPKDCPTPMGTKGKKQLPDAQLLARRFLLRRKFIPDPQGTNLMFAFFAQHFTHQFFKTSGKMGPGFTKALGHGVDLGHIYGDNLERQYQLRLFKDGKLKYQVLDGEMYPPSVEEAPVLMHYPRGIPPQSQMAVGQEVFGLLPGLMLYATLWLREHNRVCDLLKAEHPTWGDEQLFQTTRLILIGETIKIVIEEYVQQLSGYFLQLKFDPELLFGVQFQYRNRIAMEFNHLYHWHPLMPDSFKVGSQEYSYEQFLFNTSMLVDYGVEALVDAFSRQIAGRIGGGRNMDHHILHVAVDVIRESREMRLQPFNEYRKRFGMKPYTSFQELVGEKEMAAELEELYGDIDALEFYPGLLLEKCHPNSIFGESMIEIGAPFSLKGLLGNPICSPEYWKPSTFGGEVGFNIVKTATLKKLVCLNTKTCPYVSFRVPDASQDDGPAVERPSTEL

| IC50 [1] [nM] | IC50 [2] [nM] | Compound |
| --- | --- | --- |
| 1000 | ~3000 | FC(F)(F)c1cccc(N2CCC(N=Cc3ccccn3)=N2)c1 [Example 2, 3-(2-pyridylmethyleneamino)-1-(3-trifluoromethylphenyl)-2-pyrazoline] |
| 5000 | 12000 | Cc1ccc(C=NC2=NN(c3ccc4ccccc4c3)CC2)cc1 [Example 8, 3-(4-methylbenzylideneamino)-1-(2-naphthyl)-2-pyrazoline] |
| ~5000 | > 10000 | Oc1ccccc1C=NC1=NN(c2ccc(Br)c(C(F)(F)F)c2)CC1 [Example 11, 1-(4-bromo-3-trifluoromethylphenyl)-3-(2-hydroxybenzylideneamino)-2-pyrazoline] |
| ~1000 | ~1000 | CC1CN(c2cccc(C(F)(F)F)c2)N=C1N=Cc1ccccc1O (stereo not shown) [Example 18, 4-Methyl-3-salicylideneamino-1-(3-trifluoromethylphenyl)-2-pyrazoline] |
| < 1000 | < 1000 | CC(C)(C)c1cccc(N2CCC(N)=N2)c1 [Example 13, 3-Amino-1-(3-t-butylphenyl)-2-pyrazoline] |
| ~3000 | < 1000 | FC(F)(F)c1cccc(N2CCC(N=Cc3ccccc3)=N2)c1 [Example 15, 3-Benzylideneamino-1-(3-trifluoromethylphenyl)-2-pyrazoline] |
| ~3000 | ~3000 | Oc1ccccc1C=NC1=NN(c2cccc(C(F)(F)F)c2)CC1 [Example 4, 3-salicylideneamino-1-(3-trifluoromethylphenyl)-2-pyrazoline] |
| 10000 | 6000 | FC(F)(F)c1cccc(N2CCC(N=Cc3cccc4ccccc34)=N2)c1 [Example 7, 3-(1-naphthylmethyleneamino)-1-(3-trifluoromethylphenyl)-2-pyrazoline] |
| < 1000 | 1000 | FC(F)(F)c1cccc(N2CCC(N=Cc3ccc[nH]3)=N2)c1 [Example 3, 3-(2-pyrrolylmethyleneamino)-1-(3-trifluoromethylphenyl)-2-pyrazoline] |
| ~1000 | ~1000 | COc1ccc(C=NC2=NN(c3ccc(Br)c(C(F)(F)F)c3)CC2)cc1 [Example 12, 1-(4-bromo-3-trifluoromethylphenyl)-3-(4-methoxybenzylideneamino)-2-pyrazoline] |

| Compound | IC50 [1] [nM] | IC50 [2] [nM] |
| --- | --- | --- |
| O=C(O)CCCCOc1cccc(O)c1C=NC1=NN(c2cccc(C(F)(F)F)c2)CC1 [Example 1, 3-(2-4'-carboxybutoxy-6-hydroxybenzylideneamino)-1-(3-trifluoromethylphenyl)-2-pyrazoline] | < 3000 | 10000 to 20000 |
